From PubChem BioAssay AID624323 (Sanford-Burnham Center for Chemical Genomics, 2012)
≈ marks a conversion by molar mass, not a printed value. Calls of active or inactive are those of the source. The rule behind the calls is not given here.

Tested on: aqueous buffer solubility, pH 5.0/6.2/7.4
Experiment: aqueous buffer solubility at three pH values, ADME assay, biophysical, set 2 (AID 624323)
Settings: at 100 µM, stronger effect = higher value
[1] = measured here: solubility at pH 5.0
[2] = measured here: solubility at pH 6.2

SMILES | solubility | solubility [1] [µg/mL] | solubility [2] [µg/mL]
c1ccc2c(Nc3nnc(-c4ccncc4)s3)cccc2c1 | 3.5 µg/mL (inactive) (≈ 11.5 µM) | 3.3 (≈ 10.8 µM) | 3.5 (≈ 11.5 µM)
COc1ccc(S(=O)(=O)n2nc(OC(=O)c3ccccc3)cc2N)cc1 | 14.9 µg/mL (≈ 39.9 µM) | 0.46 (≈ 1.23 µM) | 2 (≈ 5.36 µM)
COc1ccc(N(C(=O)CCl)C(C(=O)NCCc2ccccc2)c2cccs2)cc1Cl (stereo unspecified) | 1.2 µg/mL (inactive) (≈ 2.51 µM) | 0.61 (≈ 1.28 µM) | 0.86 (≈ 1.8 µM)
Cc1ccc(S(=O)(=O)NCc2ccc(C(=O)NCCN(Cc3ccccc3)C(C)C)cc2)cc1 | 19.6 µg/mL (≈ 40.9 µM) | > 47 | 34.7 (≈ 72.3 µM)
CC(C)(C)OC(=O)NCCc1nnc(S(=O)(=O)Cc2ccc(Cl)cc2Cl)o1 | 7.4 µg/mL (inactive) (≈ 17 µM) | 14.6 (≈ 33.5 µM) | 4.8 (≈ 11 µM)
O=c1c2ccccc2[se]n1-c1ccccc1 | 5.6 µg/mL (inactive) (≈ 20.4 µM) | 5 (≈ 18.2 µM) | 6 (≈ 21.9 µM)
Cc1ccnc(NC(=O)CCCOc2cc(=O)n(C)c3ccccc23)c1 | 9.1 µg/mL (inactive) (≈ 25.9 µM) | 19 (≈ 54.1 µM) | 9.3 (≈ 26.5 µM)
O=C(O)c1ccc(N2C(=O)/C(=C/c3ccc(-c4ccc([N+](=O)[O-])cc4)o3)C=C2c2ccccc2)cc1 | 0.79 µg/mL (inactive) (≈ 1.65 µM) | 0.59 (≈ 1.23 µM) | 13.4 (≈ 28 µM)
Cc1ccc(NC(=O)CCC(=O)N/N=C/c2ccc([N+](=O)[O-])o2)cc1C | 0.29 µg/mL (inactive) (≈ 0.809 µM) | 0.19 (≈ 0.53 µM) | 0.3 (≈ 0.837 µM)
O=C(COC(=O)C12CC3CC(CC(C3)C1)C2)NCc1ccco1 | 2.6 µg/mL (inactive) (≈ 8.19 µM) | < 0.1 | 4.2 (≈ 13.2 µM)
CSc1nc(-c2ccc(C)cc2)nc(C(Cl)Cl)n1 | 0.01 µg/mL (inactive) (≈ 0.0333 µM) | 0.02 (≈ 0.0666 µM) | 0.01 (≈ 0.0333 µM)
Cc1cc(C)nc(-n2nc(C)c(Sc3ccc(F)cc3)c2N)n1 | 9.3 µg/mL (inactive) (≈ 28.2 µM) | 5.6 (≈ 17 µM) | 8.6 (≈ 26.1 µM)
C/C=C/Cn1c(SCCCc2ccccc2)nc2c1c(=O)[nH]c(=O)n2C | 0.39 µg/mL (inactive) (≈ 1.05 µM) | 0.24 (≈ 0.648 µM) | 0.31 (≈ 0.837 µM)
COc1ccc(C2CC(c3ccccc3)=NN2c2ccc(S(N)(=O)=O)cc2)cc1 (stereo unspecified) | 0.05 µg/mL (inactive) (≈ 0.123 µM) | 0.06 (≈ 0.147 µM) | 0.04 (≈ 0.0982 µM)
Cc1ccc(N2CCN(S(=O)(=O)N3CCCCC3)CC2)c(C)c1 | 1.6 µg/mL (inactive) (≈ 4.74 µM) | 1.8 (≈ 5.33 µM) | 1.5 (≈ 4.44 µM)
C=CCn1c(SCC(=O)c2ccc(O)c(O)c2)nnc1-c1ccccc1OC | 24 µg/mL (≈ 60.4 µM) | 4.5 (≈ 11.3 µM) | 5.3 (≈ 13.3 µM)

SMILES | solubility | solubility [1] [µg/mL] | solubility [2] [µg/mL]
O=c1c(O)c(-c2cc(O)c(O)c(O)c2)oc2cc(O)cc(O)c12 | 1.7 µg/mL (inactive) (≈ 5.34 µM) | 3.2 (≈ 10.1 µM) | 5.3 (≈ 16.7 µM)
Cc1ccc(C(=O)n2c3ccccc3c3ccccc32)cc1 | < 0.01 µg/mL (inactive) | < 0.01 | < 0.01
Brc1cc2c(cc1C1Nc3ccccc3C3C=CCC31)OCO2 (stereo unspecified) | < 0.01 µg/mL (inactive) | < 0.01 | 0.04 (≈ 0.108 µM)
CC[C@H]1CN2CCc3cc(OC)c(OC)cc3[C@@H]2C[C@@H]1C[C@H]1NCCc2cc(OC)c(OC)cc21 | > 55 µg/mL | > 55 | > 55
c1ccc(-c2nnc(N3CCOCC3)nc2-c2ccccc2)cc1 | 2.3 µg/mL (inactive) (≈ 7.22 µM) | 2 (≈ 6.28 µM) | 1.8 (≈ 5.65 µM)
CCCc1nc2c(=O)n(C)c(=O)nc-2n(C)n1 | > 23 µg/mL | > 23 | > 23
CC1CCCN(C(C(=O)Nc2ccc3c(c2)OCCO3)c2ccccc2)C1 (stereo unspecified) | 1.7 µg/mL (inactive) (≈ 4.64 µM) | > 36 | > 36
CCc1oc2ccccc2c1C(=O)c1cc(Br)c(O)c(Br)c1 | > 42 µg/mL | 0.18 (≈ 0.424 µM) | 26.1 (≈ 61.5 µM)
O=c1[nH]c(SCc2ccc(Cl)cc2)nc2c1CCC2 | 0.94 µg/mL (inactive) (≈ 3.21 µM) | 0.45 (≈ 1.54 µM) | 0.52 (≈ 1.78 µM)
O=C(CCNS(=O)(=O)c1cccc2nsnc12)N1CCN(c2ccccn2)CC1 | > 43 µg/mL | 35.8 (≈ 82.8 µM) | 35.5 (≈ 82.1 µM)
O=C(COc1ccccc1Br)NCCc1nc2ccccc2[nH]1 | > 37 µg/mL | > 37 | > 37
O=C(CSc1cccc2cccnc12)N1CCCC1 | > 27 µg/mL | > 27 | > 27
O=S1(=O)Nc2c(ccc3cccnc23)-c2ccccc21 | > 2.8 µg/mL (inactive) | 9.6 (≈ 34 µM) | 13.6 (≈ 48.2 µM)
CN(C)c1oc(-c2ccc(OCc3ccc(Cl)cc3)cc2)nc1C#N | 0.08 µg/mL (inactive) (≈ 0.226 µM) | 0.17 (≈ 0.48 µM) | < 0.01
CCc1nnc(NC(=O)c2ccc(NS(=O)(=O)c3ccccc3)cc2)s1 | 0.78 µg/mL (inactive) (≈ 2.01 µM) | 0.09 (≈ 0.232 µM) | 0.16 (≈ 0.412 µM)
CC(=O)c1ccc(N2CCN(S(=O)(=O)c3ccc4c(c3)CC(=O)N4)CC2)cc1 | 3.5 µg/mL (inactive) (≈ 8.76 µM) | 3.2 (≈ 8.01 µM) | 3.7 (≈ 9.26 µM)
